The source of these data is ChEMBL document CHEMBL3870342, “New polyhydroxytriterpenoid derivatives from fruits of Terminalia chebula Retz. and their α-glucosidase and α-amylase inhibitory activity” (Bioorg Med Chem Lett, 2017).

What is called inhibition is the percentage by which the read-out fell short of the control. Broadly, the IC50 is the concentration needed to halve the response being measured. A higher IC50 goes with weaker potency.

For assay [1], the species on record is Rattus norvegicus. In words: Inhibition of rat intestinal alpha-glucosidase using PNPG as substrate at 200 uM after 30 mins.
Assay [2] deals with Saccharomyces cerevisiae. In words: Inhibition of Saccharomyces cerevisiae alpha-glucosidase using PNPG as substrate at 200 uM preincubated for 10 mins followed by substrate addition measured after 10 mins.
Assay [3] has as its target T1, Pancreatic alpha-amylase (Sus scrofa) (UniProt P00690).
T1 sequence (whole entry): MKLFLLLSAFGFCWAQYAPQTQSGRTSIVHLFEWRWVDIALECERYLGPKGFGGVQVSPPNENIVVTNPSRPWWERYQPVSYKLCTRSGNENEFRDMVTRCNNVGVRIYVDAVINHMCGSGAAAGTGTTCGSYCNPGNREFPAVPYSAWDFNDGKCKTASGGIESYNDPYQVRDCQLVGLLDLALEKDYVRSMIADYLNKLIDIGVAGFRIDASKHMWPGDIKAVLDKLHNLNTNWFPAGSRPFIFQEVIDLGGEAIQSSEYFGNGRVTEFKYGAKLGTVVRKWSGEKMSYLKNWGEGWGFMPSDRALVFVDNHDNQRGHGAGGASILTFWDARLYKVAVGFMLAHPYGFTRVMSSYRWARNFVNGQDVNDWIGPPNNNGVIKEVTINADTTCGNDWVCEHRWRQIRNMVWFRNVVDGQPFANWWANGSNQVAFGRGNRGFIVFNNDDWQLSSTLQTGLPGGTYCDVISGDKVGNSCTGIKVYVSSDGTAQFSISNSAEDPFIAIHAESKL
In words: Inhibition of pig pancreas alpha-amylase using potato starch as substrate at 200 uM after 15 mins.

Assay [4] is described as follows: Inhibition of Saccharomyces cerevisiae alpha-glucosidase using PNPG as substrate preincubated for 10 mins followed by substrate addition measured after 10 mins.

As for `CC1=C2C3=CC[C@@H]4[C@@]5(C)C[C@@H](O)[C@H](O)[C@@](C)(CO)[C@@H]5CC[C@@]4(C)[C@]3(C)CC[C@@]2(C(=O)O[C@@H]2O[C@H](CO)[C@@H](O)[C@H](O)[C@H]2O)CC[C@H]1C`, the inhibition in assay [1] amounted to 7.3%; in assay [2] it was 25.1%; in assay [3], 2.4%.
For `CC1(C)CC[C@]2(C(=O)O[C@@H]3O[C@H](CO)[C@@H](O)[C@H](O)[C@H]3O)CC[C@]3(C)C(=CC[C@@H]4[C@@]5(C)C[C@@H](O)[C@H](O)C(C)(C)[C@@H]5CC[C@]43C)[C@@H]2[C@@H]1O`, the inhibition in assay [1] came out at 7.8%; in assay [2], 36.1%; in assay [3], 7.2%.
`CC1(C)CC[C@]2(C(=O)O[C@@H]3O[C@H](CO)[C@@H](O)[C@H](O)[C@H]3O)CC[C@]3(C)C(=CC[C@@H]4[C@@]5(C)C[C@@H](O)[C@H](O)[C@@](C)(CO)[C@@H]5CC[C@]43C)[C@@H]2C1`: the inhibition in assay [1] was determined as 6.4%; in assay [2], 4%; in assay [3], 5.9%.
For `CC1(C)CC[C@]2(C(=O)O)CC[C@]3(C)C(=CC[C@@H]4[C@@]5(C)C[C@@H](O)[C@H](O)[C@@](C)(CO)[C@@H]5CC[C@]43C)[C@@H]2[C@@H]1O`, in that order: 2.8%, 4.4% and 1.7%.
Turning to `CC1(C)CC[C@]2(C(=O)O[C@@H]3O[C@H](CO)[C@@H](O)[C@H](O)[C@H]3O)CC[C@]3(C)C(=CC[C@@H]4[C@@]5(C)C[C@@H](O)[C@H](O)[C@@](C)(COC(=O)[C@@H](CC(=O)O)C[C@H]6c7c(cc(O)c(O)c7O)C(=O)O[C@@H]6C(=O)O)[C@@H]5CC[C@]43C)[C@@H]2[C@@H]1O`, the inhibition turned out to be 6.7% in assay [1], 8.2% in assay [2] and 4.4% in assay [3].
Regarding `CC1(C)CC[C@]2(C(=O)O)CC[C@]3(C)C(=CC[C@@H]4[C@@]5(C)C[C@@H](O)[C@H](O)[C@@](C)(COC(=O)[C@H](CC(=O)O)C[C@H]6c7c(cc(O)c(O)c7O)C(=O)O[C@@H]6C(=O)O)[C@@H]5CC[C@]43C)[C@@H]2[C@@H]1O`, the inhibition in assay [1] worked out at 8.5%; in assay [2] it was 40.1%; in assay [3] it was 3.3%.
As for `C[C@H]1O[C@H](O[C@H]2[C@H](O)[C@@H](O)[C@@H](O[C@H]3[C@H](O)[C@@H](O)C(O)O[C@@H]3CO)O[C@@H]2CO)[C@H](O)[C@@H](O)[C@@H]1N[C@H]1C=C(CO)[C@@H](O)[C@H](O)[C@H]1O` (stereo not given in full) [ACARBOSE], the inhibition came out at 69.3% in assay [1], 58.6% in assay [2] and 82.1% in assay [3]. For the same compound, half-maximal inhibition in assay [4] (IC50) was put at 174 µM.
As for `CC1(C)CC[C@]2(C(=O)O[C@@H]3O[C@H](CO)[C@@H](O)[C@H](O)[C@H]3O)CC[C@]3(C)C(=CC[C@@H]4[C@@]5(C)C[C@@H](O)[C@H](O)[C@@](C)(CO)[C@@H]5CC[C@]43C)[C@@H]2[C@@H]1O`, the inhibition in assay [2] is 3.1%.
Take `CC1(C)CC[C@]2(C(=O)O)CC[C@]3(C)C(=CC[C@@H]4[C@@]5(C)C[C@@H](O)[C@H](O)[C@@](C)(CO)[C@@H]5[C@H](O)C[C@]43C)[C@@H]2C1`: the results for the inhibition in assay [1], in assay [2] and in assay [3] were 10.1%, 21% and 7.5%, respectively.
For `CC1(C)CC[C@]2(C(=O)O)CC[C@]3(C)C(=CC[C@@H]4[C@@]5(C)C[C@@H](O)[C@H](O)[C@@](C)(CO)[C@@H]5CC[C@]43C)[C@@H]2C1`, the values for the inhibition in assay [1], in assay [2] and in assay [3] were 4.7%, 48.8% and 9.7%, respectively.
For `CC1(C)CC[C@]2(C(=O)O)CC[C@]3(C)C(=CC[C@@H]4[C@@]5(C)C[C@@H](O)[C@H](O)C(C)(C)[C@@H]5CC[C@]43C)[C@@H]2[C@@H]1O`, in that order: 7.8%, 48.2% and 6.2%.
Taken in the same sequence, the figures for `CC1(C)CC[C@]2(C(=O)O[C@@H]3O[C@H](CO)[C@@H](O)[C@H](O)[C@H]3O)CC[C@]3(C)C(=CC[C@@H]4[C@@]5(C)CC[C@H](O)[C@@](C)(CO)[C@@H]5CC[C@]43C)[C@@H]2[C@@H]1O` were 9.7%, 20.7% and 5.6%.
